Test results as given in patent US20060074243A1, “Hydroxamic acid and amide compounds and their use as protease inhibitors” (Pharmacia Corporation, priority 2002, published 2006).

How the values were obtained:
Assay in all cases: In vitro MMP inhibition analysis (fluorogenic peptide substrate cleavage), Ki
Format in all cases: biochemical
Human recombinant MMP-1 = target: T1, Human recombinant MMP-1 (Homo sapiens, UniProt P03956)
T1 construct: made in house; host or cells: MMP-1-transfected HT-1080 cells (spent media)
T1 sequence (P03956 100-469): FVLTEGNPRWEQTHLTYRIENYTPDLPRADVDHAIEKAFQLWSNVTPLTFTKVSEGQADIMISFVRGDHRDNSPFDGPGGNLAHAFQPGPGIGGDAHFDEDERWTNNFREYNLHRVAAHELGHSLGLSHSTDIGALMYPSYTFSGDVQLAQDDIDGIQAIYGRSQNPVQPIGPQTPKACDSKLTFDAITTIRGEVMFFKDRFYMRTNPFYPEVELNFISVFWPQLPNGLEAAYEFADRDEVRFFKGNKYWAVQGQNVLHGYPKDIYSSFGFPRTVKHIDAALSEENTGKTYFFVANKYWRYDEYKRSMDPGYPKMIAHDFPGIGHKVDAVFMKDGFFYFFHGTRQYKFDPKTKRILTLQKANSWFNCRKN
Procedure: (§1) Several compounds and salts were analyzed in an in vitro assay to determine their ability to inhibit the MMP cleavage of peptide substrates. Inhibition constant (Ki) were calculated from the assayed compound-MMP interactions.
(§2) Human recombinant MMP-1, MMP-2, MMP-9, MMP-13, and MMP-14 were used in this assay. All enzymes were prepared in Assignee's laboratories following usual laboratory procedures. Protocols for the preparation and use of these enzymes are available in the scientific literature. See, e.g., Enzyme Nomenclature (Academic Press, San Diego, Calif., 1992) (and the citations therein). See also, Frije et al., J. Biol. Chem., 26(24), 16766-73 (1994).
The MMP-1 proenzyme was purified from the spent media of MMP-1-transfected HT-1080 cells provided by Dr. Harold Welgus of Washington University (St. Louis, Mo.). The protein was purified on a zinc chelating column.
(§3) All MMPs were activated using 4-aminophenylmercuric acetate (“APMA”, Sigma Chemical, St. Louis, Mo.) or trypsin. MMP-9 also was activated using human recombinant MMP-3 (purified in Assignee's laboratory following standard cloning and purification techniques).
(§4) The following fluorogenic, methoxycoumarin-containing polypeptide substrate (I) was used in the MMP inhibition assays: MCA-ArgProLeuGlyLeuDpaAlaArgGluArgNH2 (I) “MCA” is 7-methoxycoumarin-4-yl acetyl. Substrate (I) was prepared Assignee's laboratory. In the absence of MMP inhibitory activity, the substrate is cleaved at the Gly-Leu peptide bond. This cleavage separates the highly fluorogenic peptide from the 2,4-dinitrophenyl quencher, thus resulting in increase of fluorescent intensity.
(§5) The stock solutions of the assayed compounds and salts were prepared in […] (DMSO). These stock solutions were diluted in Buffer A (100 mM Tris-HCl, 100 mM NaCl, 10 mM CaCl2, 0.05% polyoxyethylene 23 lauryl ether, pH 7.5) to obtain solutions with different compound concentrations, i.e., assay solutions with different concentrations of the assayed […] compound. The experiment controls contained the same amount of Buffer A/DMSO as the assayed sample, but contained none of the tested compound or salt.
(§6) The assays from which the Ki determinations were made were performed as follows. The assayed compound samples were incubated in separate wells of untreated white polystyrene plates (Nunc Nalgene International, Rochester, N.Y.), and analyzed on a Tecan SpectraFlour Plus plate reader. The excitation wavelength was 330 nm, and the emission wavelength—420 nm. All samples (assayed compounds and controls) were incubated in separate plate wells at room temperature for 1 hr in the presence of 4 μM of MMP substrate (I). In the absence of MMP inhibitory activity, substrate (I) was cleaved at the Gly-Leu bond resulting in an increase of relative fluorescence. Inhibition was observed as a reduced rate of this increase in relative fluorescence. […] This protocol is a modification of method by Knight et al., FEBS Lett., 296(3), 263-266 (1992). Apparent inhibitory constants were determined by non-linear regression of reaction velocity as a function of inhibitor and enzyme concentration using Morrison's equation, as described by Kuzmic, Anal. Biochem. 286, 45-50 (2000). Modifications were made in the non-linear regression method to allow a common control reaction rate and effective enzyme concentration to be shared between all dose-response relationships on a given assay plate. Since the substrate concentration was chosen to be at or below the Km, the apparent Ki's from this analysis were reported as Ki's without correction for the influence of substrate.
(§7) The above protocols were used to determine Ki constants for the compounds in Examples 2-35 above. All Ki values in Table 1 are given in nM units.

Human recombinant MMP-9 = target: T2, Human recombinant MMP-9 (Homo sapiens, UniProt P14780)
T2 construct: made in house; host or cells: MMP-9-transfected HT1080 cells (spent media)
Procedure: as §1, §2
The MMP-9 proenzyme was purified by gelatin Sepharose chromatography from spent media of MMP-9-transfected HT1080 cells provided by Dr. Howard Welgus of Washington University (St. Louis, Mo.).
as §3, §4, §5, §6, §7

Human recombinant MMP-14 = target: T3, Human recombinant MMP-14 (Homo sapiens, UniProt P50281)
T3 construct: The catalytic domain enzyme was expressed in E. coli inclusion bodies, solubilized in urea; made in house
Procedure: as §1, §2
The MMP-14 full length cDNA was provided by Dr. Gregory Goldberg of Washington University (St. Louis, Mo.). The catalytic domain enzyme was expressed in E. coli inclusion bodies, solubilized in urea, purified on a preparative […] reverse phase HPLC column, and then refolded in the presence of zinc acetate and purified for use.
as §3, §4, §5, §6, §7

T2 sequence (P14780 107-707 limits assumed): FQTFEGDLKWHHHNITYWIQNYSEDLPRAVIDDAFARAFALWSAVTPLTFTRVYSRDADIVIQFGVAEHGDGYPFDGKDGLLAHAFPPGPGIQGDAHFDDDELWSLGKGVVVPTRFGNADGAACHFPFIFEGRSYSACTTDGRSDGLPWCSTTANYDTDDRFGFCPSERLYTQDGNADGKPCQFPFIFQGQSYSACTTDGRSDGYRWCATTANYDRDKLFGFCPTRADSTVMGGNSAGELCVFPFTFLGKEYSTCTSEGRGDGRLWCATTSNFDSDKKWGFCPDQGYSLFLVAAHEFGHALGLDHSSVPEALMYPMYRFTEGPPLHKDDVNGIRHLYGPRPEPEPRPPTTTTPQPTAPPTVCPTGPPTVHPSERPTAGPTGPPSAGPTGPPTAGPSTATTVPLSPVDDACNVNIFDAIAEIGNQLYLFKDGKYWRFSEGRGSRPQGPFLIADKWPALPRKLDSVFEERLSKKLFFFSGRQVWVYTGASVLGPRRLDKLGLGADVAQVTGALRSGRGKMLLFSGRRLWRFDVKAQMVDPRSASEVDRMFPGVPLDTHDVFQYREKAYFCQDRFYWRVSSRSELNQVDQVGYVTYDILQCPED

Ki (Human recombinant MMP-1; Table 2) [nM] | Ki (Human recombinant MMP-9; Table 2) [nM] | Ki (Human recombinant MMP-14; Table 2) [nM] | Ki (Human recombinant MMP-1; Table 1) [nM] | Ki (Human recombinant MMP-9; Table 1) [nM] | Ki (Human recombinant MMP-14; Table 1) [nM] | SMILES
7400 | 35.2 | 4150 | – | – | – | O=C(NO)C1(S(=O)(=O)c2ccc(-c3ccc(CCC(F)(C(F)(F)F)C(F)(F)F)cn3)cc2)CCOCC1 [Example 133]
– | – | – | 3530 | 0.719 | 708 | O=C(NO)C1(S(=O)(=O)c2ccc(-c3ccc(CCCC(F)(F)F)cn3)cc2)CCOCC1 [Example 69]
– | – | – | > 10000 | 0.88 | 3620 | O=C(NO)C1(S(=O)(=O)c2ccc(-c3cnc(CCC4CC4)cn3)cc2)CCOCC1 [Example 49]
4410 | 8.56 | 745 | – | – | – | O=C(NO)C1(S(=O)(=O)c2ccc(-c3ccc(CCC4CCCCC4)cn3)cc2)CCOCC1 [Example 129]
> 10000 | 0.127 | 604 | – | – | – | CCCCc1ccc(-c2ccc(S(=O)(=O)C3(C(=O)NO)CCN(CC)CC3)cc2)nc1 [Example 140]
– | – | – | > 10000 | 0.375 | 5970 | COCCN1CCC(C(=O)NO)(S(=O)(=O)c2ccc(-c3cnc(CCC(C)(F)F)cn3)cc2)CC1 [Example 65]
3480 | 0.38 | 599 | – | – | – | O=CN1CCC(C(=O)NO)(S(=O)(=O)c2ccc(-c3ccc(CCCC(F)(F)F)cn3)cc2)CC1 [Example 159]
1840 | 0.34 | 493 | – | – | – | O=C(NO)C1(S(=O)(=O)c2ccc(-c3cnc(OCC(F)(F)C(F)(F)F)cn3)cc2)CCOCC1 [Example 154]
– | – | – | > 10000 | 1.83 | 2930 | O=C(NO)C1(S(=O)(=O)c2ccc(-c3cnc(CCC(F)(F)F)cn3)cc2)CCOCC1 [Example 62]
> 1250 | 12.8 | > 1250 | – | – | – | CC(C)(C)CCNc1cnc(-c2ccc(S(=O)(=O)C3(C(=O)NO)CCOCC3)cc2)cn1 [Example 130]
> 10000 | 5.18 | 117 | – | – | – | CCN1CCC(C(=O)NO)(S(=O)(=O)c2ccc(-c3noc(-c4ccc(C(F)(F)F)cc4)n3)cc2)CC1 [Example 149]
257 | 0.198 | 79.4 | – | – | – | O=C(NO)C1(S(=O)(=O)c2ccc(-c3ccc(-c4ccncc4)cc3)cc2)CCOCC1 [Example 141]
> 10000 | 1.04 | 1110 | – | – | – | O=C(NO)C1(S(=O)(=O)c2ccc(-c3cnc(N4CCCC4)cn3)cc2)CCOCC1 [Example 138]
– | – | – | > 10000 | 0.38 | 1860 | COCCN1CCC(C(=O)NO)(S(=O)(=O)c2ccc(-c3ccc(CCC(F)(F)C(F)(F)F)cc3)cc2)CC1 [Example 46]
– | – | – | > 10000 | 0.31 | 4260 | CC(F)(F)CCc1cnc(-c2ccc(S(=O)(=O)C3(C(=O)NO)CCN(C4CC4)CC3)cc2)cn1 [Example 66]
– | – | – | 2120 | 0.38 | 453 | O=C(NO)C1(S(=O)(=O)c2ccc(-c3ccc(CCCC(F)F)cc3)cc2)CCOCC1 [Example 57]
1630 | 3.4 | 585 | – | – | – | O=C(NO)C1(S(=O)(=O)c2ccc(-c3ccc(OCCCC(F)(F)F)cc3)cc2)CCOCC1 [Example 74]
> 10000 | 1.15 | 2870 | – | – | – | O=C(NO)C1(S(=O)(=O)c2ccc(-c3ncc(CCC(F)(F)C(F)(F)F)cn3)cc2)CCOCC1 [Example 137]

Ki (Human recombinant MMP-1; Table 2) [nM] | Ki (Human recombinant MMP-9; Table 2) [nM] | Ki (Human recombinant MMP-14; Table 2) [nM] | Ki (Human recombinant MMP-1; Table 1) [nM] | Ki (Human recombinant MMP-9; Table 1) [nM] | Ki (Human recombinant MMP-14; Table 1) [nM] | SMILES
1600 | 57.9 | 1880 | – | – | – | O=C(NO)C1(S(=O)(=O)c2ccc(-c3ncccn3)cc2)CCOCC1 [Example 121]
– | – | – | 9600 | 0.22 | 1890 | O=C(NO)C1(S(=O)(=O)c2ccc(-c3ccc(CCCC(F)(F)F)cn3)cc2)CCN(C2CC2)CC1 [Example 51]
– | – | – | 335 | 0.045 | 185 | COCCN1CCC(C(=O)NO)(S(=O)(=O)c2ccc(-c3ccc(OC(F)(F)C(F)F)cc3)cc2)CC1 [Example 39]
> 10000 | 34 | 7350 | – | – | – | O=C(NO)C1(S(=O)(=O)c2ccc(-c3cnc(C4CCCC4)cn3)cc2)CCOCC1 [Example 162]
– | – | – | 2710 | 0.642 | 800 | O=C(NO)C1(S(=O)(=O)c2ccc(-c3ccc(CCCC(F)(F)F)cc3)cc2)CCOCC1 [Example 42]
391 | 0.09 | 120 | – | – | – | O=C(NO)C1(S(=O)(=O)c2ccc(-c3ccc(-c4ccccc4)cn3)cc2)CCN(C2CC2)CC1 [Example 151]
5910 | 5.25 | 67.1 | – | – | – | O=C(NO)C1(S(=O)(=O)c2ccc(-c3noc(-c4ccc(F)cc4)n3)cc2)CCOCC1 [Example 134]
3580 | 4.84 | 315 | – | – | – | CCc1cnc(-c2ccc(S(=O)(=O)C3(C(=O)NO)CCOCC3)cc2)nc1 [Example 122]
– | – | – | > 10000 | 3.54 | 8450 | CC(C)(C)N1CCC(C(=O)NO)(S(=O)(=O)c2ccc(-c3ccc(CCCC(F)(F)F)cc3)cc2)CC1 [Example 48]
– | – | – | > 10000 | 0.347 | 2560 | O=C(NO)C1(S(=O)(=O)c2ccc(-c3cnc(CCC(F)(F)C(F)(F)F)cn3)cc2)CCOCC1 [Example 55]
1240 | 0.48 | 1050 | – | – | – | CN1CCC(C(=O)NO)(S(=O)(=O)c2ccc(-c3ccc(OC(F)(F)C(F)F)cc3)cc2)CC1 [Example 146]
1500 | 0.47 | 307 | – | – | – | O=C(NO)C1(S(=O)(=O)c2ccc(-c3ccc(-c4ccccc4F)cn3)cc2)CCN(C2CC2)CC1 [Example 150]
481 | 1.13 | 187 | – | – | – | O=C(NO)C1(S(=O)(=O)c2ccc(-c3ccc(OCCCC(F)(F)F)cn3)cc2)CCOCC1 [Example 144]
1010 | 1.89 | 414 | – | – | – | O=C(NO)C1(S(=O)(=O)c2ccc(-c3ccc(-n4ccnc4)cc3)cc2)CCOCC1 [Example 127]
1310 | 0.18 | 205 | – | – | – | O=C(NO)C1(S(=O)(=O)c2ccc(-c3ccc(-c4ccccc4)cc3)cc2)CCN(C2CC2)CC1 [Example 153]
> 10000 | 5.3 | 6240 | – | – | – | O=C(NO)C1(S(=O)(=O)c2ccc(-c3cnc(N4CCCCC4)cn3)cc2)CCOCC1 [Example 131]
> 2500 | 4.36 | > 2500 | – | – | – | O=C(NO)C1(S(=O)(=O)c2ccc(-c3cnc(NCC4CC4)cn3)cc2)CCOCC1 [Example 128]
3350 | 0.21 | 303 | – | – | – | O=C(NO)C1(S(=O)(=O)c2ccc(-c3ccc(CCC(F)(F)F)cc3)cc2)CCOCC1 [Example 161]
